pIC50: −log10 of the molar value.
Key:
QR1 = QR1 (Oryctolagus cuniculus, UniProt U3KNP2); assay: QR1 activity assay (Example 2); type: biochemical, rabbit; set-up: QR1 was purified from rabbit liver as previously described; from tissue; host or cells: rabbit liver
Method: Purification of native ALDH1, QR2 and QR1. RBC extract was prepared as described above and applied to PQ-Sepharose equilibrated in buffer A. ALDH1 and QR2 were obtained by eluting the column with 5 mM b-NAD^+ and NMeH respectively.
ALDH1, QR2 and QR1 activity assays. […] Reaction products were separated with a gradient of acetonitrile in 10 mM triethylamine acetic acid. […] QR1 IC50 values were calculated using GraphPad Prism.

ALDH1 = biological target: T1, ALDH1 (Homo sapiens, UniProt P00352); assay: ALDH1 HPLC-based activity assay (Example 2); type: biochemical; conditions: physiological concentrations of NAD+
T1 construct: Purification of native ALDH1, QR2 and QR1; RBC extract was prepared as described above and applied to PQ-Sepharose; tissue Valley Biomedical (blood); host or cells: human red blood cells
T1 sequence (P00352 1-501): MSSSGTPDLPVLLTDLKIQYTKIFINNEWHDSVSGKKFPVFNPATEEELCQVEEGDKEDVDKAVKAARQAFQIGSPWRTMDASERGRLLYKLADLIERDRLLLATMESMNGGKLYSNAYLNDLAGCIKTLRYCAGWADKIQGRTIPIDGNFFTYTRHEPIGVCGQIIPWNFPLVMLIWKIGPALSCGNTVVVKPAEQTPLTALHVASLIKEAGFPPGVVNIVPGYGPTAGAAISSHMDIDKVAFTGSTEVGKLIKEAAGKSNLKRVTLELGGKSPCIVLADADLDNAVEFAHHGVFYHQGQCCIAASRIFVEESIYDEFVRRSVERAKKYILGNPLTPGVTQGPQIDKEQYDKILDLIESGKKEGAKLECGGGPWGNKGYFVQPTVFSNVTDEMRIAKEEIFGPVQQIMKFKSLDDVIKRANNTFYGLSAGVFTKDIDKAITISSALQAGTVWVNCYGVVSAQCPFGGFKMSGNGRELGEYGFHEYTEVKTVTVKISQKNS
Method: Purification of native ALDH1, QR2 and QR1. RBC extract was prepared as described above and applied to PQ-Sepharose equilibrated in buffer A. ALDH1 and QR2 were obtained by eluting the column with 5 mM b-NAD^+ and NMeH respectively. QR1 was purified from rabbit liver as previously described (Lind et al, Methods Enzymol. 186:287-301 (1990)). All enzymes were sequenced to confirm their identify and were >90% pure as judged by SDS-PAGE and silver staining.
ALDH1, QR2 and QR1 activity assays. ALDH1 activity was determined using an HPLC-based assay because of the co-absorbance of CQ and NADH at 340 nm. Reaction products were separated with a gradient of acetonitrile in 10 mM triethylamine acetic acid. CQ and NADH peaks were identified by their signature spectra using an online photodiode array detector. QR2 activity was assayed in triplicate with recombinant QR2 (at 96 ng/mL) by measuring the absorbance at 365 nm in a buffer containing 50 mM Tris-HCl, pH 8.5, 50 μM NMeH, 5-30 μM menadione, and 0.1% Triton X-100. […] QR2 K1 values were calculated using KinetAsyst II by fitting the experimental data to the equations of Cleland (Methods Enzymol. 63:103-138 (1979)). […] QR1 IC50 values were calculated using GraphPad Prism.
The quinolines inhibit ALDH1 and QR2. […] Because of the co-absorbance of NADH and CQ at 340 nm, an HPLC based assay was developed to determine the effects of CQ on ALDH1 activity.

QR1, sequence (U3KNP2 1-274): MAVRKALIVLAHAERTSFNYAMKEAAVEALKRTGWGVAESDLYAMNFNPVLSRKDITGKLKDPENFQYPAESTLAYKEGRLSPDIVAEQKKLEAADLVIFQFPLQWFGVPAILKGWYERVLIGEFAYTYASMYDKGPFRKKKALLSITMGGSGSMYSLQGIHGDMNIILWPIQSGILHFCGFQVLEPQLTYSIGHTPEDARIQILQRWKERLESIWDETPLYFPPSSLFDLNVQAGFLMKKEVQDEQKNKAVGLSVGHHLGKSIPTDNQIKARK

CCN(CC)CCCC(C)Nc1ccnc2cc(Cl)ccc12 (stereo not drawn) [CQ, chloroquine]
pIC50 (QR1): < 3.00 | effect on QR1 activity (QR1): not affected | pIC50 (ALDH1): 3.30

Source: US20030143645A1, “Quinone reductase 2 and aldehyde dehydrogenase as therapeutic targets” (priority 2001, published 2003)
